Like-named read-outs stand apart in the source and are kept apart here.
Columns and labels:
SK-MEL-5 = experiment: NCI screen, melanoma; assay type: cell-based; conditions: Homo sapiens, read-out: Log10 GI50, SK-MEL-5 (converted)
[1] = system: DU-145 prostate cancer cells; experiment: NCI in vitro anticancer screen, DU-145 prostate cancer; assay type: cell-based; conditions: Homo sapiens
Description: (§1) The effects of the analogs on cancer cell growth was investigated in the National Cancer Institute (NCI) Developmental Therapeutics Program's in vitro panel of approximately 55 cell lines (Grever et al., Seminars in Oncology 19:622 (1992), Alley et al., Cancer Research 48:589 (1988) and Montes et al., J. National Cancer Institute 83:757 (1991)). Representative results are listed in Table 1 for HOP-62 non-small-cell lung cancer cells, HCT-116 colon cancer cells, SF-539 central nervous system (CNS) cancer cells, UACC-62 melanoma cells, OVCAR ovarian cancer cells, SN12-C renal cancer cells, DU-145 prostate cancer cells, and MDA-MB-435 breast cancer cells.
(§2) ^a The cytotoxicity GI50 values are the concentrations

OVCAR-8 = experiment: NCI screen, ovarian cancer; assay type: cell-based; conditions: Homo sapiens, read-out: Log10 GI50, OVCAR-8 (converted)
SF-295 = experiment: NCI screen, CNS cancer; assay type: cell-based; conditions: Homo sapiens, read-out: Log10 GI50, SF-295 (converted)
NCIH-522 = experiment: NCI screen, non-small cell lung cancer; assay type: cell-based; conditions: Homo sapiens, NCI-H522, read-out: Log10 GI50, NCIH-522 (converted)
A549/ATCC = experiment: NCI screen, non-small cell lung cancer; assay type: cell-based; conditions: Homo sapiens, read-out: Log10 GI50, A549/ATCC (converted)
HS 578T = experiment: NCI screen, breast cancer; assay type: cell-based; conditions: Homo sapiens, read-out: Log10 GI50, HS 578T (converted)
UO-31 = experiment: NCI screen, renal cancer; assay type: cell-based; conditions: Homo sapiens, read-out: Log10 GI50, UO-31 (converted)
OVCAR-3 = experiment: NCI screen, ovarian cancer; assay type: cell-based; conditions: Homo sapiens, read-out: Log10 GI50, OVCAR-3 (converted)
SNB-75 = experiment: NCI screen, CNS cancer; assay type: cell-based; conditions: Homo sapiens, read-out: Log10 GI50, SNB-75 (converted)
ACHN = experiment: NCI screen, renal cancer; assay type: cell-based; conditions: Homo sapiens, read-out: Log10 GI50, ACHN (converted)
NCI-H322M = experiment: NCI screen, non-small cell lung cancer; assay type: cell-based; conditions: Homo sapiens, read-out: Log10 GI50, NCI-H322M (converted)
SW-260 = experiment: NCI screen, colon cancer; assay type: cell-based; conditions: Homo sapiens, read-out: Log10 GI50, SW-260 (converted)
U251 = experiment: NCI screen, CNS cancer; assay type: cell-based; conditions: Homo sapiens, U-251, read-out: Log10 GI50, U251 (converted)
RPMI-8226 = experiment: NCI screen, leukemia; assay type: cell-based; conditions: Homo sapiens, read-out: Log10 GI50, RPMI-8226 (converted)
786-0 = experiment: NCI screen, renal cancer; assay type: cell-based; conditions: Homo sapiens, read-out: Log10 GI50, 786-0 (converted)
CCRF-CEM = experiment: NCI screen, leukemia; assay type: cell-based; conditions: Homo sapiens, read-out: Log10 GI50, CCRF-CEM (converted)
NCI-H460 = experiment: NCI screen, non-small cell lung cancer; assay type: cell-based; conditions: Homo sapiens, read-out: Log10 GI50, NCI-H460 (converted)
RXF 393 = experiment: NCI screen, renal cancer; assay type: cell-based; conditions: Homo sapiens, read-out: Log10 GI50, RXF 393 (converted)
SR = experiment: NCI screen, leukemia; assay type: cell-based; conditions: Homo sapiens, read-out: Log10 GI50, SR (converted)
[2] = system: OVCAR ovarian cancer cells; experiment: NCI in vitro anticancer screen, OVCAR ovarian cancer; assay type: cell-based; conditions: Homo sapiens, read-out: cytotoxicity GI50, Ovarian OVCAR
Description: as §1, §2

[3] = system: HCT-116 colon cancer cells; experiment: NCI in vitro anticancer screen, HCT-116 colon cancer; assay type: cell-based; conditions: Homo sapiens
Description: as §1, §2

SK-MEL-28 = experiment: NCI screen, melanoma; assay type: cell-based; conditions: Homo sapiens, read-out: Log10 GI50, SK-MEL-28 (converted)
tubulin = experiment: Inhibition of tubulin polymerization (turbidimetry at 350 nm); assay type: biochemical, bovine; conditions: 26° C., 20 min; read-out: Inhibn of Tubulin Polymn IC50
Protocol: Four instruments were used, and two control reaction mixtures were present in each experiment. […] IC50 values were determined graphically. […]
Inhibition of tubulin polymerization was investigated using electrophoretically homogeneous tubulin from bovine brain.

SNB-19 = experiment: NCI screen, CNS cancer; assay type: cell-based; conditions: Homo sapiens, read-out: Log10 GI50, SNB-19 (converted)
[4] = system: all human cancer cell lines (approximately 55); experiment: NCI in vitro anticancer screen, all cell lines; assay type: cell-based
Description: as §1
^b Mean graph midpoint for all human cancer cell lines (approximately

UACC-62 melanoma cells = experiment: NCI in vitro anticancer screen, UACC-62 melanoma; assay type: cell-based; conditions: Homo sapiens
Description: as §1, §2

In the case of `C[C@]12CC[C@@H]3c4cc(OCC(F)(F)F)c(O)cc4C(=NO)C[C@H]3[C@@H]1CC[C@@H]2O` [Compound 12, 2-(2',2', 2'-Trifluoroethoxy)-6-Hydroximino-Estra-1,3,5(10)-Triene-3,17β-Diol], the GI50 (SK-MEL-5) is reported as under 10 nM, the GI50 ([1]; DU-145, read-out: cytotoxicity GI50, Prostate DU-145) is reported as under 10 nM and the GI50 ([1]; DU-145, Prostate Cancer, read-out: Log10 GI50, DU-145 (converted)) is reported as under 10 nM. It also gave a GI50 (OVCAR-8) of under 10 nM, a GI50 (SF-295) of under 10 nM and a GI50 (NCIH-522) of under 10 nM. The GI50 (A549/ATCC) was under 10 nM, the GI50 (HS 578T) was under 10 nM and the GI50 (UO-31) was under 10 nM. It also gave a GI50 (OVCAR-3) of under 10 nM, a GI50 (SNB-75) of under 10 nM and a GI50 (ACHN) of under 10 nM. For the same compound, the GI50 (NCI-H322M) was under 10 nM, the GI50 (SW-260) was under 10 nM and the GI50 (U251) was under 10 nM. For the same compound, the GI50 (RPMI-8226) was under 10 nM, the GI50 (786-0) was under 10 nM and the GI50 (CCRF-CEM) was under 10 nM. It also gave a GI50 (NCI-H460) of under 10 nM, a GI50 (RXF 393) of under 10 nM and a GI50 (SR) of under 10 nM. The GI50 [2] was under 10 nM, the GI50 ([3]; HCT-116, read-out: cytotoxicity GI50, Colon HCT-116) was under 10 nM and the GI50 ([3]; HCT-116, Colon Cancer, read-out: Log10 GI50, HCT-116 (converted)) was under 10 nM. The GI50 (SK-MEL-28) was under 10 nM, the IC50 (tubulin) was 500 nM and the GI50 (SNB-19) was under 10 nM. It also gave a GI50 ([4]; 10^-8 molar is the lowest concentration normally investigated, read-out: GI50) of under 10 nM, a GI50 ([4]; approximately 55 cell lines, read-out: MGM (mean graph midpoint for all human cancer cell lines), GI50) of 10 nM and a GI50 ([4]; average of all cell lines of Table 2, read-out: Log10 GI50, Average (all cell lines) (converted)) of under 10 nM. For the same compound, the GI50 (UACC-62 melanoma cells; UACC-62, read-out: cytotoxicity GI50, Melanoma UACC-62) was under 10 nM and the GI50 (UACC-62 melanoma cells; UACC-62, Melanoma, read-out: Log10 GI50, UACC-62 (converted)) was under 10 nM.

From patent US6136992A, “2-alkoxy estradiols and derivatives thereof” (The United States of America as represented by the …, priority 1998, dated 2000)
